Target: T1, glucocorticoid receptor (Homo sapiens, UniProt P04150)
T1 construct: expressed in transfected cells
T1 sequence (P04150 524-758 limits assumed): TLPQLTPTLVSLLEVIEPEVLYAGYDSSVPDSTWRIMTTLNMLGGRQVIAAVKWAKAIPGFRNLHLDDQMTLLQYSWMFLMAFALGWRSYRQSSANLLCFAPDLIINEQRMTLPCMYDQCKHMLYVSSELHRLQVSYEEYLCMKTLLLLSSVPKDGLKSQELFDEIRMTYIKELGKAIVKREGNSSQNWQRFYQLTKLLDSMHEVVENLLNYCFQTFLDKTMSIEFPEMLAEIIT
Test: Agonistic mode of action on the glucocorticoid receptor (CHO-Gal4/GR luciferase reporter cell line)
Assay type: cell-based
Conditions: range class observed in the agonistic assay or the antagonistic assay (CHO-Gal4/GR reporter cells); table does not say which mode applies per example
How it was run: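 CHO cells stably carrying GAL4 DBD–GR ligand-binding-domain fusion and GAL4-UAS firefly luciferase reporter, 5000 cells/well grown 24 h, then compounds added in Opti-MEM at 8 half-log concentrations from 10 μM to 0.003 μM (0.5% DMSO), quadruplicates. Agonist-induced luminescence read on FLIPR Tetra; EC50 calculated.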

| SMILES | IC50 or EC50 (agonist or antagonist mode not specified) |
| --- | --- |
| Cc1nnc2n1-c1c(cc(F)c(-c3cccc4c3cnn4C)c1C(F)F)NC2(C)C [Example 294, 9-(Difluoro-methyl)-7-fluoro-1,4,4-trimethyl-8-(1-methyl-1H-indazol-4-yl)-5H-[1,2,4]triazolo[4,3-a]quinoxaline] | < 0.1 µM |
| Cc1c[nH]c2c(-c3c(F)cc4c(c3F)-n3c(Cc5ccccc5)nnc3C(C)(C)N4)cc(F)cc12 [Example 67, 1-Benzyl-7,9-difluoro-8-(5-fluoro-3-methyl-1H-indol-7-yl)-4,4-dimethyl-5H-[1,2,4]triazolo[4,3-a]quinoxaline] | 1 to 15 µM |
| Cc1c(-c2cc(F)cc3c2cnn3S(C)(=O)=O)c(Cl)cc2c1-n1c(C)nnc1C(C)(C)N2 [Example 347, 7-Chloro-8-(6-fluoro-1-methylsulfonyl-1H-indazol-4-yl)-1,4,4,9-tetramethyl-5H-[1,2,4]triazolo[4,3-a]quinoxaline] | 0.1 to 1 µM |
| Cc1nnc2n1-c1c(cc(F)c(-c3cccc4c(C(F)(F)F)c[nH]c34)c1F)NC2(C)C [Example 10, 7,9-difluoro-1,4,4-trimethyl-8-(3-(trifluoromethyl)-1H-indol-7-yl)-4,5-dihydro-[1,2,4]triazolo[4,3-a]quinoxaline] | 0.1 to 1 µM |
| Cc1c(-c2cc(F)cc3c2ccn3CCO)c(OC(F)(F)F)cc2c1-n1c(C)nnc1C(C)(C)N2 [Example 471, 2-[6-Fluoro-4-[1,4,4,9-tetramethyl-7-(trifluoromethyloxy)-5H-[1,2,4]triazolo[4,3-a]quinoxalin-8-yl]-1H-indol-1-yl]-ethanol] | 0.1 to 1 µM |
| Cc1c(-c2cccc3c(C#CC(C)(C)N)c[nH]c23)c(F)cc2c1-n1c(C)nnc1C(C)(C)N2 [Example 40] | < 0.1 µM |
| COCCn1ccc2c(-c3c(OC(F)F)cc4c(c3C)-n3c(C)nnc3C(C)(C)N4)cccc21 [Example 336, 7-(Difluoro-methoxy)-8-[1-(2-methoxy-ethyl)-1H-indol-4-yl]-1,4,4,9-tetramethyl-5H-[1,2,4]triazolo[4,3-a]quinoxaline] | 1 to 15 µM |
| Cc1c(-c2cccc3c(C)n[nH]c23)c(Cl)cc2c1-n1c(C)nnc1C(C)(C)N2 [Example 368, 7-Chloro-1,4,4,9-tetramethyl-8-(3-methyl-1H-indazol-7-yl)-5H-[1,2,4]triazolo[4,3-a]quinoxaline] | 0.1 to 1 µM |
| Cc1c(-c2cccc3c(C4CCOC4)c[nH]c23)c(F)cc2c1-n1c(C)nnc1C(C)(C)N2 (centres unmarked) [Example 42, 7-fluoro-1,4,4,9-tetramethyl-8-(3-(tetrahydrofuran-3-yl)-1H-indol-7-yl)-4,5-dihydro-[1,2,4]triazolo[4,3-a]quinoxaline] | < 0.1 µM |
| Cc1c[nH]c2c(-c3c(F)cc4c(c3C(F)F)-n3c(C)nnc3C(C)(C)N4)cc(F)cc12 [Example 302, 9-(Difluoro-methyl)-7-fluoro-8-(5-fluoro-3-methyl-1H-indol-7-yl)-1,4,4-trimethyl-5H-[1,2,4]triazolo[4,3-a]quinoxaline] | < 0.1 µM |
| Cc1nnc2n1-c1c(cc(F)c(-c3cc(F)cc4cc[nH]c34)c1C(F)(F)F)NC2(C)C [Example 516, 7-Fluoro-8-(5-fluoro-1H-indol-7-yl)-1,4,4-trimethyl-9-(trifluoro-methyl)-5H-[1,2,4]triazolo[4,3-a] quinoxaline] | 0.1 to 1 µM |
| COc1cc2c(c(C(F)(F)F)c1-c1cc(F)cc3c(C)c[nH]c13)-n1c(C)nnc1C(C)(C)N2 [Example 407, 8-(5-Fluoro-3-methyl-1H-indol-7-yl)-7-methoxy-1,4,4-trimethyl-9-(trifluoromethyl)-5H-[1,2,4]triazolo[4,3-a]quinoxaline] | < 0.1 µM |
| Cc1nnc2n1-c1c(cc(F)c(-c3cc(F)cc4c3ccn4CCO)c1C(F)(F)F)NC2(C)C [Example 447, 2-[6-Fluoro-4-[7-fluoro-1,4,4-trimethyl-9-(trifluoromethyl)-5H-[1,2,4]triazolo[4,3-a]quinoxalin-8-yl]-1H-indol-1-yl]-ethanol] | 0.1 to 1 µM |
| Cc1c[nH]c2c(-c3c(Cl)cc4c(c3F)-n3c(C)nnc3C(C)(C)N4)cc(F)cc12 [Example 290, 7-Chloro-9-fluoro-8-(5-fluoro-3-methyl-1H-indol-7-yl)-1,4,4-trimethyl-5H-[1,2,4]triazolo[4,3-a]quinoxaline] | 0.1 to 1 µM |
| Cc1nnc2n1-c1c(cc(F)c(-c3cc(F)cc4c3ccn4S(=O)(=O)C3CC3)c1F)NC2(C)C [Example 19, 8-(1-(cyclopropylsulfonyl)-6-fluoro-1H-indol-4-yl)-7,9-difluoro-1,4,4-trimethyl-4,5-dihydro-[1,2,4]triazolo[4,3-a]quinoxaline] | 0.1 to 1 µM |
| Cc1c(-c2cccc3c(CC(F)(F)F)c[nH]c23)c(F)cc2c1-n1c(C)nnc1C(C)(C)N2 [Example 24, 7-fluoro-1,4,4,9-tetramethyl-8-(3-(2,2,2-trifluoroethyl)-1H-indol-7-yl)-4,5-dihydro-[1,2,4]triazolo[4,3-a]quinoxaline] | < 0.1 µM |
| COCCn1ncc2c(-c3c(F)cc4c(c3F)-n3c(C)nnc3C(C)(C)N4)cccc21 [Example 233, 7,9-Difluoro-8-[1-(2-methoxy-ethyl)-1H-indazol-4-yl]-1,4,4-trimethyl-5H-[1,2,4]triazolo[4,3-a]quinoxaline] | 0.1 to 1 µM |
| Cc1nnc2n1-c1c(cc(OC(F)F)c(-c3cccc4c3cnn4C)c1F)NC2(C)C [Example 273, 7-(Difluoro-methoxy)-9-fluoro-1,4,4-trimethyl-8-(1-methyl-1H-indazol-4-yl)-5H-[1,2,4]triazolo[4,3-a]quinoxaline] | 1 to 15 µM |

Further lines, results first:

| IC50 or EC50 (agonist or antagonist mode not specified) | SMILES |
| --- | --- |
| 1 to 15 µM | COC(=O)CCn1ccc2c(-c3c(F)cc4c(c3F)-n3c(C)nnc3C(C)(C)N4)cccc21 [Example 219, 3-[4-(7,9-Difluoro-1,4,4-trimethyl-5H-[1,2,4]triazolo[4,3-a]quinoxalin-8-yl)-1H-indol-1-yl]-propionic acid methyl ester] |
| 1 to 15 µM | Cc1c(-c2cccc3c2cnn3S(C)(=O)=O)c(Cl)cc2c1-n1c(C)nnc1C(C)(C)N2 [Example 386, 7-Chloro-1,4,4,9-tetramethyl-8-(1-methylsulfonyl-1H-indazol-4-yl)-5H-[1,2,4]triazolo[4,3-a] quinoxaline] |
| 1 to 15 µM | COc1cc2c(c(C(F)(F)F)c1-c1cc(F)cc3c1cnn3S(C)(=O)=O)-n1c(C)nnc1C(C)(C)N2 [Example 376, 8-(6-Fluoro-1-methylsulfonyl-1H-indazol-4-yl)-7-methoxy-1,4,4-trimethyl-9-(trifluoromethyl)-5H-[1,2,4]triazolo[4,3-a]quinoxaline] |
| < 0.1 µM | COCC(=O)n1ccc2c(-c3c(F)cc4c(c3F)-n3c(C)nnc3C(C)(C)N4)cccc21 [Example 213, 1-[4-(7,9-Difluoro-1,4,4-trimethyl-5H-[1,2,4]triazolo[4,3-a]quinoxalin-8-yl)-1H-indol-1-yl]-2-methoxy-ethanone] |
| 0.1 to 1 µM | Cc1nnc2n1-c1c(cc(F)c(-c3cccc4c(C#N)c[nH]c34)c1C(F)(F)F)NC2(C)C [Example 89, 7-(7-fluoro-1,4,4-trimethyl-9-(trifluoromethyl)-4,5-dihydro-[1,2,4]triazolo[4,3-a]quinoxalin-8-yl)-1H-indole-3-carbonitrile] |
| 0.1 to 1 µM | COc1cc2c(c(C(F)(F)F)c1-c1cccc3c1ccn3C)-n1c(C)nnc1C(C)(C)N2 [Example 509, 7-Methoxy-1,4,4-trimethyl-8-(1-methyl-1H-indol-4-yl)-9-(trifluoromethyl)-5H-[1,2,4]triazolo[4,3-a]quinoxaline] |
| 0.1 to 1 µM | Cc1nnc2n1-c1c(ccc(-c3cccc4c3ccn4S(C)(=O)=O)c1C(F)(F)F)NC2(C)C [Example 498, 1,4,4-Trimethyl-8-(1-methylsulfonyl-1H-indol-4-yl)-9-(trifluoromethyl)-5H-[1,2,4]triazolo[4,3-a]quinoxaline] |
| 0.1 to 1 µM | COc1cc2c(c(C(F)(F)F)c1-c1cccc3c1ccn3CC(F)F)-n1c(C)nnc1C(C)(C)N2 [Example 500, 8-[1-(2,2-Difluoro-ethyl)-1H-indol-4-yl]-7-methoxy-1,4,4-trimethyl-9-(trifluoromethyl)-5H-[1,2,4]triazolo[4,3-a]quinoxaline] |
| 0.1 to 1 µM | Cc1c(-c2cc(F)cc3c2ccn3S(C)(=O)=O)c(OC(F)F)cc2c1-n1c(C)nnc1C(C)(C)N2 [Example 335, 7-(Difluoro-methoxy)-8-(6-fluoro-1-methylsulfonyl-1H-indol-4-yl)-1,4,4,9-tetramethyl-5H-[1,2,4] triazolo[4,3-a]quinoxaline] |
| 0.1 to 1 µM | Cc1nnc2n1-c1c(cc(Cl)c(-c3cccc4c3ccn4S(C)(=O)=O)c1F)NC2(C)C [Example 284, 7-Chloro-9-fluoro-1,4,4-trimethyl-8-(1-methylsulfonyl-1H-indol-4-yl)-5H-[1,2,4]triazolo[4,3-a]quinoxaline] |
| 1 to 15 µM | COc1cc2c(c(F)c1-c1cccc3c1ccn3CC(F)F)-n1c(C)nnc1C(C)(C)N2 [Example 314, 8-[1-(2,2-Difluoro-ethyl)-1H-indol-4-yl]-9-fluoro-7-methoxy-1,4,4-trimethyl-5H-[1,2,4]triazolo[4,3-a]quinoxaline] |

Source: US12110293B2, “Substituted triazolo quinoxaline derivatives” (GRÜNENTHAL GMBH, priority 2018, dated 2024)
